Starred links: 1 amine or outer side, 2 acyl side, 3 side chain; linkers in the order of their positions; H or OH if unused. Positions of bridges follow the written chain, without caps; N, C: chain ends. Non-standard residues stand in square brackets, D forms with d. Residues, ends and D or L forms follow the SMILES beside them. Chains are numbered I, II in the order given. Actinocin(9to1) = Cc1c2oc3c(C)ccc(C(=O)[*:1])c3nc-2c(C(=O)[*:2])c(N)c1=O; NMeV = CN[C@H](C(=O)O)C(C)C; Sar = CNCC(=O)O
Key:
[1] = system: RPS26 and TP53 transcripts; test: Quantitative RT-PCR of control transcripts in A673 cells; format: cell-based; conditions: actinomycin D treatment (Figure 2F)
Description: Duplicate wells of A673 cells were treated overnight with different concentration of actinomycin D. RNA was extracted with absolutely mRNA purification kit from Stratagene. 0.5 µg total RNA was mixed with 1 µl iScript Reverse Transcriptase, 10 µl of 2× RT-PCR reaction mix for probes from Bio-Rad, 1 µl of NR0B1, RPS26 and TP53 probes from Life Technologies and H2O up to 20 µl total volume. RT-PCR was performed in an iCycler iQ with 50°C for 10 minutes for one cycle; 95°C, 15 seconds, 60°C 40 seconds for 40 cycles. Each RNA sample was technically duplicated, and relative abundance was calculated by the delta Ct method.

[2] = target: T1, EWS-FLI1 binding to the NR0B1 promoter (Homo sapiens, UniProt Q01543+Q01844); test: ChIP-qPCR, EWS-FLI1 binding to NR0B1 promoter in A673 cells; format: cell-based; conditions: 5 nM, 4 hrs, anti-FLI1 ChIP, DMSO 31-fold, p = 0.0018
T1 construct: EWS (EWSR1, Q01844) N-terminal portion, fusion partner; endogenous in cells; host or cells: A673 Ewing sarcoma cells
T1 sequence (Q01844+Q01543 with tags, fused parts or gaps): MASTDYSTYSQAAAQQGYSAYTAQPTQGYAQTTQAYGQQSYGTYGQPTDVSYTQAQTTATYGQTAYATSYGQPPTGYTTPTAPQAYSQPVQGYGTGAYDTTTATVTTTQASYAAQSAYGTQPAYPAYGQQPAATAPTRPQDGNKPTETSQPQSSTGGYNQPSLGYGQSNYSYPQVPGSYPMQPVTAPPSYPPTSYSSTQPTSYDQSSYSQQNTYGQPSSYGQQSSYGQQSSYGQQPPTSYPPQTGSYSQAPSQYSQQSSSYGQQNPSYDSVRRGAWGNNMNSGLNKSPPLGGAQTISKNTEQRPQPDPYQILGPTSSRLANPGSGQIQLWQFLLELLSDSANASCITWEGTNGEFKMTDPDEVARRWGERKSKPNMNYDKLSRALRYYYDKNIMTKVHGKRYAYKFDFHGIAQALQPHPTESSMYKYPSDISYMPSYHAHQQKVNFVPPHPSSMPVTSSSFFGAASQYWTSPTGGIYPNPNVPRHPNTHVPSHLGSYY
Description: ChIP-qPCR was performed as previously described. Briefly, cells were treated with compounds for 4 hrs, then crosslinked, lysed, and chromatin fragmented. After ChIP, quantitative PCR was used to quantify NR0B1, p53, and RPS26 loci, and fold enrichment was determined by the formula: Fold enrichment = 2χ(Input Ct-ChIP Ct)/2χ(Input Ct-IgG Ct).
We used chromatin immunoprecipitation coupled with quantitative PCR (ChIP-qPCR) to assess effects of actinomycin D on EWS-FLI1 binding to chromatin in cells. A673 cells were treated with either actinomycin D at 5 nM, or vehicle. After crosslinking, chromatin was sheared and EWS-FLI1-DNA complexes were immunoprecipitated using an anti-FLI1 antibody. We used primers flanking the EWS-FLI1-binding site in the promoter of the NR0B1 gene to quantify binding of EWS-FLI1. We used RPS26 and TP53 as control loci since neither are bound by EWS-FLI [15] and we have shown that RPS26 and TP53 transcript levels were unaffected by actinomycin D treatment (Figure 2F). Without actinomycin D treatment, binding of EWS-FLI1 to the NR0B1 promoter was enriched 31-fold by comparison to IgG controls (Figure 4A, DMSO). Treatment of cells with actinomycin D reduced binding of EWS-FLI1 to the NR0B1 promoter to 4-fold (p = 0.0018; Figure 4A).

[3] = system: Hela; test: MTT cell viability assay; format: cell-based; conditions: Homo sapiens, 44 hours
Description: (§1) Cells were seeded at a density of 1.5×10^5/ml with 100 µl/well in 96 well plates and treated with actinomycin D at 158 nM, 50 nM, 15.8 nM, 5 nM, 1.58 nM, 0.5 nM and 0 (6 wells/treatment) for 44 hours. CellTiter 96 was used to assess cell viability after a 2 hr incubation at 37°C. IC50 values were calculated using Prism.
(§2) To determine if cells driven by EWS-FLI1 are more sensitive to actinomycin D, we assessed cell growth and viability using a MTT assay after 44 hrs exposure to actinomycin D. Although all cell lines were affected by actinomycin D, the Ewing sarcoma cell lines were as a group more sensitive by comparison to other cell lines tested (Figure 5).

[4] = system: Ovcar-3; test: MTT cell viability assay; format: cell-based; conditions: Homo sapiens, 44 hours
Description: as §1, §2

[5] = system: PC-3; test: MTT cell viability assay; format: cell-based; conditions: Homo sapiens, 44 hours
Description: as §1, §2

[6] = system: TC-32; test: MTT cell viability assay; format: cell-based; conditions: Homo sapiens, 44 hours
Description: as §1, §2

[7] = system: Skov-3; test: MTT cell viability assay; format: cell-based; conditions: Homo sapiens, SK-OV-3, 44 hours
Description: as §1, §2

[8] = system: Cado-es; test: MTT cell viability assay; format: cell-based; conditions: 44 hours
Description: as §1, §2

[9] = system: TC-71; test: MTT cell viability assay; format: cell-based; conditions: 44 hours
Description: as §1, §2

[10] = system: EW-8; test: MTT cell viability assay; format: cell-based; conditions: EW8, 44 hours
Description: as §1, §2

[11] = system: A673; test: MTT cell viability assay; format: cell-based; conditions: Homo sapiens, 44 hours
Description: as §1, §2

[12] = system: NR0B1 promoter; test: NR0B1-Luc firefly luciferase reporter assay in A673 cells; format: cell-based, human; conditions: Homo sapiens, A673, 16 h, read-out: IC50 for inhibition of NR0B1 activity
Excerpt: The NR0B1 promoter was amplified from human genomic DNA using the 5′ primer- […] and 3′ primer - […]. NR0B1 promoter amplicon was cloned into the NheI and HindIII sites in the pGL.3Basic vector. The 5′ primer-[…] was used to amplify a truncated NR0B1 promoter in which the entire EWS-FLI1 binding region (GGAA repeats) was deleted to construct pGL.3b-NR0B1del. All constructs were confirmed by sequencing. All other plasmids were previously described.
Ewing sarcoma A673 cells at 50% confluence in 100 mm dishes were transfected with both 5.8 µg of pGL.3b-NR0B1 and 0.2 µg of pGL.3b-Ubc-RL reporter plasmids as above. Eight hours post-transfection, cells were trypsinized and 600 ul (2×10^5) of cells were added to each well of 24 well plates. 5 µl of different concentration of compounds or DMSO control were added to each well. Each treatment was performed in triplicate. Cells were incubated for 16 hours, then cells were lysed in 100 µl of lysis buffer and 10 µl of cell lysate was used for the dual luciferase assay. Renilla luciferase activity was used as an internal control for normalization of nonspecific transcriptional inhibition or cytotoxic effects. Experiments were repeated three times. IC50 values were calculated using Prism (Graphpad).
To determine the effect of compounds on EWS-FLI1 activity in cells, we used a reporter assay comprised of the NR0B1 promoter, a prototypical EWS-FLI1-regulated gene, driving expression of firefly luciferase. Renilla luciferase driven by the Ubiquitin C promoter (UbC-RL) was used as an internal control. Confirming prior studies, the NR0B1 promoter was verified to be highly responsive to EWS-FLI1, whereas the UbC promoter activity was not subject to regulation by EWS-FLI1 (Figure S1).

For `Cc1c2oc3c(C)ccc(C(=O)N[C@@H]4C(=O)N[C@H](C(C)C)C(=O)N5CCC[C@H]5C(=O)N(C)CC(=O)N(C)[C@@H](C(C)C)C(=O)O[C@@H]4C)c3nc-2c(C(=O)N[C@@H]2C(=O)N[C@H](C(C)C)C(=O)N3CCC[C@H]3C(=O)N(C)CC(=O)N(C)[C@@H](C(C)C)C(=O)O[C@@H]2C)c(N)c1=O` [Actinomycin D] (I: T[dV]P[Sar][NMeV] / II: T[dV]P[Sar][NMeV]; ester I:1-I:C, II:1-II:C; linker I:N-II:N via Actinocin(9to1)), the “RPS26 and TP53 transcript levels” value [1] was “unaffected”, the “Binding of EWS-FLI1 to the NR0B1 promoter, fold enrichment over IgG control” value [2] was 4 fold and the IC50 [3] was > 20 nM. The IC50 [4] was > 20 nM, the IC50 [5] was > 20 nM and the IC50 [6] was 1 nM. For the same compound, the IC50 [7] was > 20 nM, the IC50 [8] was 7 nM and the IC50 [9] was 3 nM. The IC50 [10] was 3.5 nM, the IC50 [11] was 2.5 nM and the IC50 [12] was 2.8 nM.

— publication PMC3718762, “Differential Disruption of EWS-FLI1 Binding by DNA-Binding Agents” (PLoS ONE, 2013)
